From ChEMBL document CHEMBL5113454, “Design, synthesis, and bioactivity study on Lissodendrins B derivatives as PARP1 inhibitor” (Bioorg Med Chem, 2022)
The source made the active and inactive calls. The rule behind the calls is not given here.

Columns and labels:
HCC1937 [1] = test: Cell cycle arrest in BRCA1-deficient human HCC1937 cells assessed as accumulation at S phase at 0.1 uM measured after 24 hrs by propidium iodide (PI) based FACS analysis (reference value: 26%); assay type: functional
HCC1937 [2] = test: Cell cycle arrest in BRCA1-deficient human HCC1937 cells assessed as accumulation at G2 phase at 5 uM measured after 24 hrs by propidium iodide (PI) based FACS analysis (reference value: 13.5%); assay type: functional
MDA-MB-436 [3] = test: Induction of apoptosis in BRCA1-deficient human MDA-MB-436 cells at 0.1 to 15 uM measured after 24 hrs by Annexin V/propidium iodide (PI) based FACS analysis; assay type: functional, cell-based; details: dose 0.1-15 µM
MDA-MB-436 [4] = test: Cell cycle arrest in BRCA1-deficient human MDA-MB-436 cells assessed as accumulation at S phase at 0.1 uM measured after 24 hrs by propidium iodide (PI) based FACS analysis (reference value: 27.4%); assay type: functional
HCC1937 [5] = test: Cell cycle arrest in BRCA1-deficient human HCC1937 cells assessed as accumulation at G1 phase at 15 uM measured after 24 hrs by propidium iodide (PI) based FACS analysis (reference value: 31.6%); assay type: functional
HCC1937 [6] = test: Cell cycle arrest in BRCA1-deficient human HCC1937 cells assessed as accumulation at G2 phase at 15 uM measured after 24 hrs by propidium iodide (PI) based FACS analysis (reference value: 13.5%); assay type: functional
MDA-MB-436 [7] = test: Cell cycle arrest in BRCA1-deficient human MDA-MB-436 cells assessed as accumulation at G2 phase at 0.1 uM measured after 24 hrs by propidium iodide (PI) based FACS analysis (reference value: 17.6%); assay type: functional
HCC1937 [8] = test: Cell cycle arrest in BRCA1-deficient human HCC1937 cells assessed as accumulation at S phase at 5 uM measured after 24 hrs by propidium iodide (PI) based FACS analysis (reference value: 26%); assay type: functional
MDA-MB-436 [9] = test: Cell cycle arrest in BRCA1-deficient human MDA-MB-436 cells assessed as accumulation at G1 phase at 0.1 uM measured after 24 hrs by propidium iodide (PI) based FACS analysis (reference value: 26.7%); assay type: functional
MCF7 = test: Induction of DNA damage in human MCF7 cells expressing BRCA1 at 0.1 to 15 uM assessed as increase in accumulation of DNA double-strand breaks measuring gamma-H2AX levels by Western blot analysis; assay type: functional, cell-based; details: dose 0.1-15 µM
MDA-MB-436 [10] = test: Cell cycle arrest in BRCA1-deficient human MDA-MB-436 cells assessed as accumulation at G1 phase at 5 uM measured after 24 hrs by propidium iodide (PI) based FACS analysis (reference value: 26.7%); assay type: functional
MDA-MB-436 [11] = test: Cell cycle arrest in BRCA1-deficient human MDA-MB-436 cells assessed as accumulation at G1 phase at 15 uM measured after 24 hrs by propidium iodide (PI) based FACS analysis (reference value: 26.7%); assay type: functional
HCC1937 [12] = test: Cell cycle arrest in BRCA1-deficient human HCC1937 cells assessed as accumulation at G1 phase at 5 uM measured after 24 hrs by propidium iodide (PI) based FACS analysis (reference value: 31.6%); assay type: functional
HCC1937 [13] = test: Cell cycle arrest in BRCA1-deficient human HCC1937 cells assessed as accumulation at S phase at 1 uM measured after 24 hrs by propidium iodide (PI) based FACS analysis (reference value: 26%); assay type: functional
MDA-MB-436 [14] = test: Antiproliferative activity against human MDA-MB-436 cells after 7 days by resazurin reduction assay; details: MDA-MB-436, 168 h
MDA-MB-436 [15] = test: Cell cycle arrest in BRCA1-deficient human MDA-MB-436 cells assessed as accumulation at G1 phase at 1 uM measured after 24 hrs by propidium iodide (PI) based FACS analysis (reference value: 26.7%); assay type: functional
HCC1937 [16] = test: Cell cycle arrest in BRCA1-deficient human HCC1937 cells assessed as accumulation at G1 phase at 1 uM measured after 24 hrs by propidium iodide (PI) based FACS analysis (reference value: 31.6%); assay type: functional
MDA-MB-436 [17] = test: Cell cycle arrest in BRCA1-deficient human MDA-MB-436 cells assessed as accumulation at S phase at 5 uM measured after 24 hrs by propidium iodide (PI) based FACS analysis (reference value: 27.4%); assay type: functional
MDA-MB-436 [18] = test: Cell cycle arrest in BRCA1-deficient human MDA-MB-436 cells assessed as accumulation at G2 phase at 1 uM measured after 24 hrs by propidium iodide (PI) based FACS analysis (reference value: 17.6%); assay type: functional
HCC1937 [19] = test: Cell cycle arrest in BRCA1-deficient human HCC1937 cells assessed as accumulation at S phase at 15 uM measured after 24 hrs by propidium iodide (PI) based FACS analysis (reference value: 26%); assay type: functional
HCC1937 [20] = test: Cell cycle arrest in BRCA1-deficient human HCC1937 cells assessed as accumulation at G2 phase at 1 uM measured after 24 hrs by propidium iodide (PI) based FACS analysis (reference value: 13.5%); assay type: functional
MDA-MB-436 [21] = test: Cell cycle arrest in BRCA1-deficient human MDA-MB-436 cells assessed as accumulation at G2 phase at 15 uM measured after 24 hrs by propidium iodide (PI) based FACS analysis (reference value: 17.6%); assay type: functional
MDA-MB-436 [22] = test: Cell cycle arrest in BRCA1-deficient human MDA-MB-436 cells assessed as accumulation at S phase at 15 uM measured after 24 hrs by propidium iodide (PI) based FACS analysis (reference value: 27.4%); assay type: functional
MDA-MB-436 [23] = test: Cell cycle arrest in BRCA1-deficient human MDA-MB-436 cells assessed as accumulation at G2 phase at 5 uM measured after 24 hrs by propidium iodide (PI) based FACS analysis (reference value: 17.6%); assay type: functional
HCC1937 [24] = test: Antiproliferative activity against human HCC1937 cells after 7 days by resazurin reduction assay; details: HCC1937, 168 h
HCC1937 [25] = test: Cell cycle arrest in BRCA1-deficient human HCC1937 cells assessed as accumulation at G1 phase at 0.1 uM measured after 24 hrs by propidium iodide (PI) based FACS analysis (reference value: 31.6%); assay type: functional
MDA-MB-436 [26] = test: Cell cycle arrest in BRCA1-deficient human MDA-MB-436 cells assessed as accumulation at S phase at 1 uM measured after 24 hrs by propidium iodide (PI) based FACS analysis (reference value: 27.4%); assay type: functional
MDA-MB-436 [27] = test: Induction of DNA damage in BRCA1-deficient human MDA-MB-436 cells at 0.1 to 15 uM assessed as increase in accumulation of DNA double-strand breaks measuring gamma-H2AX levels by Western blot analysis; assay type: functional, cell-based; details: dose 0.1-15 µM
HCC1937 [28] = test: Induction of apoptosis in BRCA1-deficient human HCC1937 cells at 0.1 to 15 uM measured after 24 hrs by Annexin V/propidium iodide (PI) based FACS analysis; assay type: functional, cell-based; details: dose 0.1-15 µM
HCC1937 [29] = test: Cell cycle arrest in BRCA1-deficient human HCC1937 cells assessed as accumulation at G2 phase at 0.1 uM measured after 24 hrs by propidium iodide (PI) based FACS analysis (reference value: 13.5%); assay type: functional

With `COc1ccc(C(=O)C(=O)c2c(-c3ccc(OC)cc3)nc(NC(=O)CN3CCc4cc(OC)c(OC)cc4C3)n2C)cc1` the Activity (HCC1937 [1]) was 19.9%, the Activity (HCC1937 [2]) was 22.4% and the Activity (MDA-MB-436 [3]) was “Active”. For the same molecule, the Activity (MDA-MB-436 [4]) was 30.2%, the Activity (HCC1937 [5]) was 7% and the Activity (HCC1937 [6]) was 45.9%. The Activity (MDA-MB-436 [7]) was 17%, the Activity (HCC1937 [8]) was 23.2% and the Activity (MDA-MB-436 [9]) was 23.3%. For the same molecule, the Activity (MCF7) was “Active”, the Activity (MDA-MB-436 [10]) was 10.4% and the Activity (MDA-MB-436 [11]) was 9.85%. It also gave an Activity (HCC1937 [12]) of 24.7%, an Activity (HCC1937 [13]) of 18.7% and an IC50 (MDA-MB-436 [14]) of 12.6 µM. It also gave an Activity (MDA-MB-436 [15]) of 25.1%, an Activity (HCC1937 [16]) of 32.8% and an Activity (MDA-MB-436 [17]) of 29.1%. It also gave an Activity (MDA-MB-436 [18]) of 25.4%, an Activity (HCC1937 [19]) of 17.8% and an Activity (HCC1937 [20]) of 21.6%. For the same molecule, the Activity (MDA-MB-436 [21]) was 28.5%, the Activity (MDA-MB-436 [22]) was 33.3% and the Activity (MDA-MB-436 [23]) was 32.8%. The IC50 (HCC1937 [24]) was 17.8 µM, the Activity (HCC1937 [25]) was 36.6% and the Activity (MDA-MB-436 [26]) was 21.5%. The Activity (MDA-MB-436 [27]) was “Active”, the Activity (HCC1937 [28]) was “Active” and the Activity (HCC1937 [29]) was 18.3%.
